The results in this text go back to patent US11236078B2, “Heterocyclic inhibitors of the sodium channel” (priority 2014, dated 2022).

Holding throughout (format): cell-based
For assay [1], the target named is T1, human Nav1.7 (hNav1.7) (Homo sapiens, UniProt Q15858).
T1 construct: expressed in transfected cells
The assay can be described thus: hNav1.7 slow inactivation block, automated patchclamp. The following applies: HEK 293F cells stably expressing hNav1.7, slow inactivation induced in approximately 50% of channels. (In general: Patch clamp records ionic current or voltage across a cell membrane.)

Assay [2] deals with T2, human Nav1.5 (hNav1.5) (Homo sapiens, UniProt Q14524).
T2 construct: expressed in transfected cells
The assay can be described thus: hNav1.5 slow inactivation block, automated patchclamp. To be noted: HEK 293F cells stably expressing hNav1.5. The source says: (§1) The generation of HEK 293F cell lines stably expressing human Nav1.7 (h Nav1.7), human Nav1.5 (hNav1.5) and rat Nav1.2 (r Nav1.2) was achieved by subcloning SCN9A, SCN5A, and SCN2A genes into inducible expression vectors followed by transfection into target cells using standard techniques. In the case of h Nav1.7, an expression vector encoding the human Navβ1 auxiliary subunit gene, SCN1B, was co-transfected with the expression vector bearing the SCN9A gene. Clones were selected using appropriate selection agents (0.3 mg/mL Zeocin and 0.8 mg/mL Geneticin) and maintained in Dulbecco's Modified Eagle medium, 10% fetal bovine serum, 1% non-essential amino acids to ˜80% confluence at 37° C. in a humidified incubator with 95% atmosphere and 5% CO2.
Inhibition of the TTX-resistant Nav1.5 sodium channel, a key cardiac ion channel, can have profound effects on the duration and amplitude of the cardiac action potential and can result in arrhythmias and other heart malfunctions. To assess the potential cardiac liability of compounds at an early stage in the drug discovery process, a Nav1.5 sodium channel screening assay can be performed on Molecular Device's PatchXpress™ automated electrophysiology platform. Under voltage-clamp conditions, Nav1.5 currents can be recorded from HEK cells expressing the human Nav1.5 channel in the absence and presence of increasing concentrations of the test compound to obtain an IC50 value. The external recording solution can contain (in mM): 90 TEACl, 50 NaCl, 1.8 CaCl, 1 MgCl2, 10 HEPES, 10 glucose, adjusted to pH 7.4 with TEA-OH and to 300 mOsm with sucrose (if necessary), while the internal patch pipette solution contained (in mM): 129 CsF, 2 MgCl2, 11 EGTA, 10 HEPES, 3 Na2ATP adjusted to pH 7.2 with CsOH and to 290 mOsm with sucrose (if necessary). Nav1.5 channel currents can be evoked using a cardiac action potential waveform at 1 Hz, digitized at 31.25 kHz and low-pass filtered at 12 kHz.
(§2) On the day of each experiment, cells that were grown to 80% confluence in a T75 flask were harvested for use on PatchXpress (Molecular Devices, CA, USA). Following a recovery period at 37° C. in a humidified incubator with 95% atmosphere and 5% CO2 in Dulbecco's Modified Eagle Medium, the media was replaced with an external recording solution containing (in mM): 90 TEACl, 50 NaCl, 1.8 CaCl2, 1 MgCl2, 10 HEPES, 10 glucose, adjusted to pH 7.4 with TEAOH and 300 mOsm with sucrose. The internal recording solution contained (in mM): 129 CsF, 2 MgCl2, 11 EGTA, 10 HEPES, 6 NaCl, 3 Na2ATP adjusted to pH 7.2 with CsOH and 280 mOsm with sucrose. The automated liquid handling facility of PatchXpress dispensed cells and added compound. Modulation of Nav1.7 channels by compounds was assessed by promoting the channels into the inactivated state using a conditioning voltage pulse of variable amplitude, followed by a brief hyperpolarizing pulse with a subsequent depolarized voltage step to measure the current amplitude in the presence and absence of compound.
In some cases, the potency of compounds was measured using either the Patchliner automated patch clamp platform (Nanion) or manual patch clamp techniques. Both approaches allowed the compounds to be characterized based upon the ability of a compound to modulate use- and/or state-dependence across human Nav1.7 (hNav1.7), human Nav1.5 (hNav1.5) and rat Nav1.2 (rNav1.2). The potency data is tabulated in Table 2 and is represented by six data fields. Three of the six fields represent potency data measured with the Patchliner automated platform under varying use- and state-dependent electrophysiology protocols similar to the PatchXpress protocols detailed above. […]

Assay [3] concerns the target T1, human Nav1.7 (hNav1.7). The assay can be described thus: hNav1.7 slow inactivation block, manual patchclamp. The following applies: HEK 293F cells stably expressing hNav1.7, slow inactivation induced in approximately 50% of channels.
The target in assay [4] is T2, human Nav1.5 (hNav1.5). The assay can be described thus: hNav1.5 slow inactivation block, manual patchclamp. To be noted: HEK 293F cells stably expressing hNav1.5.
Excerpt: as §1, with “CO2. […]” for “CO2.”
as §2
In some cases, the potency of compounds was measured using either the Patchliner automated patch clamp platform (Nanion) or manual patch clamp techniques. Both approaches allowed the compounds to be characterized based upon the ability of a compound to modulate use- and/or state-dependence across human Nav1.7 (hNav1.7), human Nav1.5 (hNav1.5) and rat Nav1.2 (rNav1.2). The potency data is tabulated in Table 2 and is represented by six data fields. Three of the six fields represent potency data measured with the Patchliner automated platform under varying use- and state-dependent electrophysiology protocols similar to the PatchXpress protocols detailed above. For example, the second data column describes the potency of compounds in their ability to block 50% of Nav1.7 channels when the channel is repetitively activated by depolarizing voltage potentials to induce slow inactivation in approximately 50% of channels (Table 2: h Nav1.7: IC50 Slow Inactivation Block, Automated Patchclamp). The next three data fields describe the data generated from manual patchclamp electrophysiology measurements using similar methods to those employed for automated patchclamp studies.

Assay [5] concerns the target T3, rat Nav1.2 (rNav1.2) (Rattus norvegicus, UniProt P04775).
T3 construct: expressed in transfected cells
The assay can be described thus: rNav1.2 slow inactivation block, automated patchclamp. To be noted: HEK 293F cells stably expressing rNav1.2.

For assay [6], the target named is T3, rat Nav1.2 (rNav1.2). Kind of assay: rNav1.2 slow inactivation block, manual patchclamp. The following applies: HEK 293F cells stably expressing rNav1.2.

T2 sequence (Q14524 whole entry): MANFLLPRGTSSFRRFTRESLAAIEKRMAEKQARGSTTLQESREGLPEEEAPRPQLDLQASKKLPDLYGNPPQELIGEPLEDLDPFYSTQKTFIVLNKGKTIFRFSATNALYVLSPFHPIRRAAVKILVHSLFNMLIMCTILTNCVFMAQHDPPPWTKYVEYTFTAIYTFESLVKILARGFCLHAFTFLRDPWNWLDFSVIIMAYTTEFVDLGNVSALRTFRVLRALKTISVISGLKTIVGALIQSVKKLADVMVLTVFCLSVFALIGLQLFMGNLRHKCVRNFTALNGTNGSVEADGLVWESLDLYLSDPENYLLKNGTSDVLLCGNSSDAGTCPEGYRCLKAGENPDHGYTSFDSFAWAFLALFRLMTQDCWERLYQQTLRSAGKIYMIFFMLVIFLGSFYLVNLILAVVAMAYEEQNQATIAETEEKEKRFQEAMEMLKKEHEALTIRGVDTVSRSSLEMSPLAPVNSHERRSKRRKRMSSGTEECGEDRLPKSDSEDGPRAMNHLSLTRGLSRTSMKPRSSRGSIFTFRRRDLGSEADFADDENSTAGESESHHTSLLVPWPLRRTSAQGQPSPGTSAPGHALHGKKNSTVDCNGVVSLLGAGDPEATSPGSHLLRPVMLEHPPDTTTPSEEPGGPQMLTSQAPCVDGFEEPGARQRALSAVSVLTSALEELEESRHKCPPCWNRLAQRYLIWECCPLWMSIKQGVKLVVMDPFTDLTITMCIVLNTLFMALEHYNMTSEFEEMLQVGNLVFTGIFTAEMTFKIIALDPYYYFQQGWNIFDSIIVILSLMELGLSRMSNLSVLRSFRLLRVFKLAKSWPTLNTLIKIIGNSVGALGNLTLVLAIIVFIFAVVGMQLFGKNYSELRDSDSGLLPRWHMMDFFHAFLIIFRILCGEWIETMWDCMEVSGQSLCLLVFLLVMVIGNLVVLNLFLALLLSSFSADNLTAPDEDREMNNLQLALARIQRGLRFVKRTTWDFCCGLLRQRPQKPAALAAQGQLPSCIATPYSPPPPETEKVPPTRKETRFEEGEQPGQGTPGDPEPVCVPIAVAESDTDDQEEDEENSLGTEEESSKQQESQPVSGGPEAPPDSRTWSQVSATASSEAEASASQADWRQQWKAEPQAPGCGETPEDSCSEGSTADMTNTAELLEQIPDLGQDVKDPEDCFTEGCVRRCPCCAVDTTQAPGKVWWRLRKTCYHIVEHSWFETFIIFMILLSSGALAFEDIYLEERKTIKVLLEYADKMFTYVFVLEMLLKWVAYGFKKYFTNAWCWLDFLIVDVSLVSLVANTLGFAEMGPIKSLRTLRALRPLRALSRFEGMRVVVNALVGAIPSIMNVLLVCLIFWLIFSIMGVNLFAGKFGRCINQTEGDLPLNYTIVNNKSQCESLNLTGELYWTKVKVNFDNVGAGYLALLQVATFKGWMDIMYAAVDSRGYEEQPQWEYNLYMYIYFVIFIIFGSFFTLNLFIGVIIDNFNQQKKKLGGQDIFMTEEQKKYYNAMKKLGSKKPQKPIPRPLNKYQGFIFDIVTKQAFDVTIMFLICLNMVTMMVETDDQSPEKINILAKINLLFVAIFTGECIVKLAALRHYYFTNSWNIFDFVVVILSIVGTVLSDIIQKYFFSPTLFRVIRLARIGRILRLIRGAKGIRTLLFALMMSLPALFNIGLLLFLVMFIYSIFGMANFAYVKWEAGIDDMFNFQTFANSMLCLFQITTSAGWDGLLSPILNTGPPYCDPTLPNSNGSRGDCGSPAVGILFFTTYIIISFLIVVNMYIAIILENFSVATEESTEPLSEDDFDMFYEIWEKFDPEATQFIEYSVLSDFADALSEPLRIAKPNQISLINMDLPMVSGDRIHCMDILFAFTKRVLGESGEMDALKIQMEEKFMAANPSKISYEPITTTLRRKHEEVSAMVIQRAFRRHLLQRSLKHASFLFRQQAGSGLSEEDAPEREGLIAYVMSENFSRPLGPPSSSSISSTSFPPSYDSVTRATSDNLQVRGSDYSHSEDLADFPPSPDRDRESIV
T1 sequence (Q15858 whole entry): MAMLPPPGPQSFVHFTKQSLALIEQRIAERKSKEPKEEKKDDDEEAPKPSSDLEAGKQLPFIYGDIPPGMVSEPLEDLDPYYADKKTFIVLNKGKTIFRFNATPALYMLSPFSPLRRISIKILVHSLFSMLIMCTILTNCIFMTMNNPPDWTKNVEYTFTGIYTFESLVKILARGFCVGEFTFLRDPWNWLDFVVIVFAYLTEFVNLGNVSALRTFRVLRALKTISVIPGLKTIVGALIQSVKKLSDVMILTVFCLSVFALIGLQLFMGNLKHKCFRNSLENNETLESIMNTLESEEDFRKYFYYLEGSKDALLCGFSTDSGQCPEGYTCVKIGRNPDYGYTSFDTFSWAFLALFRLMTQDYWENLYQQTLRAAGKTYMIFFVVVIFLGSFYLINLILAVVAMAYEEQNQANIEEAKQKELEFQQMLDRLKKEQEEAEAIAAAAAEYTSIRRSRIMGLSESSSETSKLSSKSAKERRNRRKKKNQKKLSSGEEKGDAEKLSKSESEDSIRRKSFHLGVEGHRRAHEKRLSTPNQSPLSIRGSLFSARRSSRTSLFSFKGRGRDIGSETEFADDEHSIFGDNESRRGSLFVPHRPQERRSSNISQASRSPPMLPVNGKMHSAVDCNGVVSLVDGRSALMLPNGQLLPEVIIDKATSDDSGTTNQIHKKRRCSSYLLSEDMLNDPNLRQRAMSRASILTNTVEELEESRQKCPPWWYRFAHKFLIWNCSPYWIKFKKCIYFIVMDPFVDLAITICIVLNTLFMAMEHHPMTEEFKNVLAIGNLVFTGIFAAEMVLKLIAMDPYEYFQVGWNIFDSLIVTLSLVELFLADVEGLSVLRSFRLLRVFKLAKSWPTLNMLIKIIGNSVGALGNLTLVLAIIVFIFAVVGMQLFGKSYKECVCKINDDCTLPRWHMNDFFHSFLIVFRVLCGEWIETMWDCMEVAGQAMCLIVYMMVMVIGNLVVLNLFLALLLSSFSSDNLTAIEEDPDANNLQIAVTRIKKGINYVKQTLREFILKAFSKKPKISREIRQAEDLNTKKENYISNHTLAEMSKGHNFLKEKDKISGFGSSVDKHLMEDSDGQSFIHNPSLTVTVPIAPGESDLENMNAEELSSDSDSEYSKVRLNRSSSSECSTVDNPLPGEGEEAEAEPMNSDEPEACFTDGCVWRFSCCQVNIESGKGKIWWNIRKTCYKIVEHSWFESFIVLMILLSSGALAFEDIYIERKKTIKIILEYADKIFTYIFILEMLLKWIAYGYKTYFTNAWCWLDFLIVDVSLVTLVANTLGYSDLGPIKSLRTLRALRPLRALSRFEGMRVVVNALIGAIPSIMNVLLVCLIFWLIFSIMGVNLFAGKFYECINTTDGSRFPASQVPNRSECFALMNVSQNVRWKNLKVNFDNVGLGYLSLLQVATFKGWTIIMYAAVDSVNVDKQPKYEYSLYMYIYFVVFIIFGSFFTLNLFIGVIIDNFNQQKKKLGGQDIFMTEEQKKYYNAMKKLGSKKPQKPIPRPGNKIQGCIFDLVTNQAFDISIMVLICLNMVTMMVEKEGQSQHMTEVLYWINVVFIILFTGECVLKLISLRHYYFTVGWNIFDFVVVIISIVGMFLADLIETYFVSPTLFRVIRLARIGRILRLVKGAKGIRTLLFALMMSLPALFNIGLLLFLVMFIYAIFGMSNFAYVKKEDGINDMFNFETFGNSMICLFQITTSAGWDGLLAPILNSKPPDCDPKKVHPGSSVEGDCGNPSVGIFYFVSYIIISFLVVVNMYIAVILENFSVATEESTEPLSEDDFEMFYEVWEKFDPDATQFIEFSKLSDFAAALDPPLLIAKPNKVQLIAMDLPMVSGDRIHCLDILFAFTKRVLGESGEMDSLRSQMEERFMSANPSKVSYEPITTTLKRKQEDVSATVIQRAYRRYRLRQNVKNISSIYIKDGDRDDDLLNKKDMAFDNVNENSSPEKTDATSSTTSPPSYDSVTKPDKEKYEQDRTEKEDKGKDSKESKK
T1 sequence (Q07699 19-218 partner): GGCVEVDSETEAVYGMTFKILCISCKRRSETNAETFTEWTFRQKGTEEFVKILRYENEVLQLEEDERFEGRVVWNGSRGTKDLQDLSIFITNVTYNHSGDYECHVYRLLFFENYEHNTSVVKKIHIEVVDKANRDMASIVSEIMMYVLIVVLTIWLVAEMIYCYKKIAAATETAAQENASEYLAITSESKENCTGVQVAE

As usually defined, the IC50 is the midpoint of a concentration-inhibition curve. As to `O=S(=O)(Nc1ncns1)c1cc(F)c(Oc2cc(N3CCC3)cc(C(F)(F)F)c2)cc1F` [Compound 48, 4-[3-(azetidin-1-yl)-5-(trifluoromethyl)phenoxy]-2,5-difluoro-N-(1,2,4-thiadiazol-5-yl)benzenesulfonamide], the IC50 was roughly 3060 nM at human Nav1.7 (hNav1.7) [1], roughly 6660 nM against human Nav1.5 (hNav1.5) [2], 142 nM against human Nav1.7 (hNav1.7) [3] and roughly 650 nM on human Nav1.5 (hNav1.5) [4].

Turning to `O=S(=O)(Nc1ncns1)c1cc(F)c(Oc2cc(N3CC(O)C3)cc(C(F)(F)F)c2)cc1F` [Compound 49, 2,5-difluoro-4-[3-(3-hydroxyazetidin-1-yl)-5-(trifluoromethyl)phenoxy]-N-(1,2,4-thiadiazol-5-yl)benzenesulfonamide], the IC50 was roughly 7680 nM at human Nav1.7 (hNav1.7) [1], roughly 17200 nM at human Nav1.5 (hNav1.5) [2], 404 nM at human Nav1.7 (hNav1.7) [3] and 1600 nM on human Nav1.5 (hNav1.5) [4].

In the case of `O=C(NCc1cccc(-c2cc(C(F)(F)F)cc(C(F)(F)F)c2)c1)[C@@H]1C[C@H](F)CN1` [Compound 52, (2S,4S)-N-((3′,5′-bis(trifluoromethyl)-[1,1′-biphenyl]-3-yl)methyl)-4-fluoropyrrolidine-2-carboxamide], the IC50 on rat Nav1.2 (rNav1.2) [5] turned out to be 5540 nM; against human Nav1.7 (hNav1.7) [1] it was 4440 nM; against human Nav1.5 (hNav1.5) [2] it was 4050 nM; against human Nav1.7 (hNav1.7) [3], 466 nM; at rat Nav1.2 (rNav1.2) [6], 928 nM; at human Nav1.5 (hNav1.5) [4], 1040 nM.

As to `N#Cc1cc(Oc2cc(C(F)(F)F)cc(C(F)(F)F)c2)ccc1S(=O)(=O)Nc1nncs1` [Example 43, 4-[3,5-bis(trifluoromethyl)phenoxy]-2-cyano-N-(1,3,4-thiadiazol-2-yl)benzene-1-sulfonamide], the IC50 against human Nav1.7 (hNav1.7) [1] is greater than 32000 nM; on human Nav1.5 (hNav1.5) [2] it was greater than 32000 nM; on human Nav1.7 (hNav1.7) [3] it was greater than 10000 nM.
